Test results from publication PMC2362650, “Phase I and pharmacokinetic study of the topoisomerase II catalytic inhibitor fostriecin” (British Journal of Cancer, 1999).

Columns and labels:
[1] = Plasma and urine pharmacokinetics (HPLC-UV) in patients after 60-min IV infusion; assay type: in vivo, human; conditions: patients who received 12.2 mg m-2 (and above) fostriecin
Text: Fostriecin (CI-920) is a topoisomerase (topo) II catalytic activity inhibitor (Boritzki et al, 1988) (Figure 1). This novel class of topo II-targeting drugs is considered of potential value for treatment of patients with tumours resistant to classic topo II poisons, including anthracyclines and podophyllotoxins (Cummings and Smyth, 1993). The nuclear enzyme topo II is essential for the regulation of DNA conformation (reviewed in Osheroff et al, 1991). Central in its action is the formation of a complex with DNA. Stabilization of this complex by topo II poisons induces DNA damage and cell death (Froelich-Ammon and Osheroff, 1995). Decreased complex formation due to decreased topo II levels is considered to be an important mechanism of tumour-resistance to topo II poisons (Beck and Danks, 1991). The topo II catalytic inhibitor fostriecin is expected to have increased activity against tumour cells with low topo II levels and this was confirmed in in vitro studies (De Jong et al, 1991). […] Because of increased toxi- city of fostriecin in dogs compared to mice, a dose below one-third of the one-tenth mouse equivalent LD10, 2 mg m-2 day-1, was chosen as starting dose in humans (Clinical Brochure Fostriecin, 1991). […] We also performed an analysis of the human pharmacokinetics of fostriecin and ex vivo experiments to investigate if the plasma drug concentrations achieved were sufficient to inhibit a tenipo- side-resistant tumour cell line. The maximum tolerated dose (MTD) of fostriecin could not be established because drug supply was stopped prematurely. However, results of this study may provide a basis for continued clinical development of this agent. PATIENTS AND METHODS Patient selection, drug administration and evaluation Patient eligibility criteria were: histologically confirmed diagnosis of a solid tumour, no longer amenable to established forms of treatment; age 18-75 years; Eastern Cooperative Oncology Group (ECOG) performance status 2; life expectancy 12 weeks; no Phase I and pharmacokinetic study of the topoisomerase II catalytic inhibitor fostriecin RS de Jong1, NH Mulder1, DRA Uges2, DTh Sleijfer1, FJP Hoppener4, HJM Groen3, PHB Willemse1, WTA van der Graaf1 and EGE de Vries1 Departments of 1Medical Oncology, 2Pharmacy and Toxicology, and 3Pulmonary Diseases, University Hospital Groningen, The Netherlands; 4EORTC New Drug Development Office, Amsterdam, The Netherlands Summary We conducted a phase I and pharmacokinetic study of the topoisomerase II catalytic inhibitor fostriecin. Fostriecin was administered intravenously over 60 min on days 1-5 at 4-week intervals. Dose was escalated from 2 mg m-2 day-1 to 20 mg m-2 day-1 in 20 patients. Drug pharmacokinetics was analysed with high performance liquid chromatography with UV-detection. Plasma collected during drug administration was tested in vitro for growth inhibition of a teniposide-resistant small-cell lung cancer (SCLC) cell line. The predominant toxicities were elevated liver transaminases (maximum common toxicity criteria (CTC) grade 4) and serum creatinine (maximum CTC grade 2). […] Duration of elevated alanine-amino transferase (ALT) was dose-limiting in one patient at 20 mg m-2. Other frequent toxicities were grade 1-2 nausea/vomiting, fever and mild fatigue. […] A metabolite, most probably dephosphorylated fostriecin, was detected in plasma and urine. […] However, further escalation seems possible and is warranted to achieve potentially effective drug levels. Fostriecin has a short plasma half-life and longer duration of infusion should be considered. […]

[2] = tested on: GLC4/VM20x; design: method as in Withoff et al, 1996; conditions: ref Withoff et al, 1996; cited from earlier work

Compound	metabolite in plasma and urine [1]	acquired resistance of GLC4/VM20x compared to GLC4 [2] [fold]
C[C@@](O)(/C=C/[C@H]1CC=CC(=O)O1)[C@H](O)C[C@@H](O)\C=C/C=C\C=C\CO [dephosphorylated fostriecin]	detected	–
COc1cc([C@@H]2c3cc4c(cc3[C@@H](O[C@@H]3O[C@@H]5CO[C@@H](c6cccs6)O[C@H]5[C@H](O)[C@H]3O)[C@H]3COC(=O)[C@H]23)OCO4)cc(OC)c1O [teniposide, reference compound]	–	20
